Results taken from patent publication US6881577B2, “Method for improving transfection efficiency” (Max-Delbrück-Centrum für Molekulare Medizin, priority 2000, dated 2005).

Tests used:
[1] = system: human colon carcinoma cells (HCT 116); assay: Transfection of HCT 116 cells with plasmid DNA/peptide complexes (with or without LIPOFECTIN), luciferase reporter gene expression; format: cell-based
Text: Complexes consisting in plasmid DNA, peptide and lipid were formed and used in transfection experiments of human colon carcinoma cells (HCT 116) in vitro. The luciferase reporter gene was used in order to measure the transfection efficiency.
In addition to the construction of the mentioned K16 peptides the invention consists in the construction of DNA-peptide-lipid-complexes. A critical issue is thereby the composition of the complexes through the selection of an appropriate peptide to DNA charge ratio as well as an appropriate amount of the lipid. The procedure of complex formation (involving concentrations, volume, buffer type, incubation time and the order by which the elements are sequentially added to the mixture, see FIGS. 1-3 and 4-6) is also a critical factor determining the transfection efficiency of the system.
Based on the above described procedure for the optimization of DNA-peptide-lipid-complexes different complexes containing plasmid DNA, the K16-CYC peptide and cationic liposome (LIPOFECTIN®) were formed and subsequently used in transfection experiments of HCT 116 cells.
Complexes were formed containing plasmid DNA, the K16-VprN peptide and cationic liposome (LIPOFECTIN®) and subsequently used in transfection experiments of HCT 116 cells.
In both applications, the K16-mVprN peptide was used as a control peptide instead of the K16-VprN peptide.

[2] = Dynamic light scattering of peptide/DNA complexes (apparent size, light scattering intensity); format: physicochemical; conditions: for relative size of the complexes on dilution: peptide/DNA complexes diluted up to 1:16, FIGS. 13 and 14
Procedure: In order to exclude the possibility that the observed enhancement of the transfection efficiency was mainly related to a more favorable complex formation process when using the K16-VprN peptide, size measurements (FIG. 11) and the determination of the relative particle number (FIG. 12) using dynamic light scattering were performed. […] Indeed, at a peptide to DNA charge ratio of 3 the K16-VprN peptide generates a three-fold increase of the light scattering intensity and an increase of the reporter gene expression of at least 100-times, as compared to K16-mVprN. At a peptide to DNA charge ratio of 9 the light scattering intensity increases twice as compared to charge ratio 3. However, in these conditions the reporter gene expression only increases 10 fold.
The complexes were subsequently diluted up to 1:16 and subjected to dynamic light scattering measurements.

[3] = peptide/DNA complex without lipid, FIG. 10

| Substance | reporter gene expression following transfection, compared to the K16-NLS peptide ([1]; complexes of plasmid DNA, peptide and LIPOFECTIN (0.5 or 1 μl), FIGS. 7 and 8) | particle size of DNA complexes compared to K16-mVprN ([2]; dynamic light scattering, FIG. 11) | increase of the light scattering intensity compared to K16-mVprN ([2]; peptide to DNA charge ratio of 3, FIG. 12) | increase of light scattering intensity compared to charge ratio 3 ([2]; peptide to DNA charge ratio of 9, FIG. 12) | relative size of the complexes on dilution ([2]; dynamic light scattering) | increase of the reporter gene expression compared to K16-mVprN ([1]; peptide to DNA charge ratio of 3, without lipid, FIG. 10) | increase of the reporter gene expression ([1]; peptide to DNA charge ratio of 9, without lipid, FIG. 10) [fold] | amount of peptide giving the highest gene expression, less than for K16-mVprN [1, 3] [times] | increase of the maximum reporter gene expression level compared to K16-mVprN [1, 3] [fold] | reporter gene expression compared to the control peptide K16-mVprN ([1]; with and without LIPOFECTIN, FIGS. 9 and 10) |
| --- | --- | --- | --- | --- | --- | --- | --- | --- | --- | --- |
| -VKLKVYPLKKKRKP- [K16-CYC] | dramatic increase | – | – | – | – | – | – | – | – | – |
| KKKKKKKKKKKKKKKKGGGCNEWTLELLEELKNEAVRHF [K16-VprN] | – | no significant difference | three-fold | twice | remains nearly constant | at least 100 times | 10 | 12 | 10 | significant increase |
| KKKKKKKKKKKKKKKKGGGNEATLELLPELKNPAVRHF (Synthetic peptide sequence, K16-mVprN, that carries 16 lysine residues for the binding of the peptide to the plasmid DNA.) | – | – | – | – | remains nearly constant | – | – | – | – | – |
